Measured values: patent US11919905B2, “Substituted benzo[f]imidazo[1,2-a][1,4]diazepines as anesthetics” (HANGZHOU ADAMERCK PHARMLABS INC., priority 2017, dated 2024)

Columns and labels:
Format in all cases: in vivo
ICR mice [1] = assay: Disappearance of righting reflex in mice induced by drugs (single i.v. bolus); details: 100 mg/kg single bolus via tail vein, male ICR mice
Method: After ICR mice (male, 18-25 g) were fast injected with the same dose (100 mg/kg) of the test drug in a single bolus via the tail vein, the incubation period and the duration of disappearance of the righting reflex in mice were recorded. Wherein, the incubation period refers to the time from the start of administration to the disappearance of the animal's righting reflex, and the duration refers to the time from the disappearance of the righting reflex to the recovery.

ICR mice [2] = assay: Effective dose and lethal dose of intravenous administration in mice; details: single bolus via tail vein, male ICR mice; for minimal effective dose: Mus musculus, iv, read-out: Effective dose (lowest dose causing the righting reflex to disappear)
Method: ICR mice (males, 18-25 g) were randomly grouped and were fast given a single bolus of different doses of test drug via the tail vein, and the lowest dose causing the righting reflex to disappear (effective dose) and the dose causing animal death (lethal dose) were recorded, and the treatment windows (lethal dose/effective dose) were calculated.

mice [3] = assay: Multiple (9 times) i.v. administrations: duration of disappearance of righting reflex in mice; details: 20 mg/kg i.v.
Method: Animals in each group were given the corresponding drug solution multiple times by the tail vein injection (i.v.) in accordance with the corresponding group, 0.1 ml per mouse each time, for 9 times of consecutive injections (the administration group mice were injected when the righting reflex was recovered). The durations of each disappearance of righting reflex were recorded, and the data was expressed as an average.

mice [4] = assay: Single i.v. administration: autonomous activity of mice; details: single i.v. 20 mg/kg
Method: Animals in each group were tested for their autonomous activities, each mouse for 10 minutes. After that, the animals in each group were given a single corresponding drug solution by the tail vein injection (i.v.) according to the corresponding group, 0.1 ml per 10 g body weight, and the autonomous activity of the mice was measured immediately after the administration, and the recording time was 50 min. Data were expressed as mean±standard deviation. Wherein, the dosage of propofol was 20 mg/kg.

Structure (SMILES): CCOC(=O)CC[C@@H]1N=C(c2ccccn2)c2cc(CC)c(OC)cc2-n2c(C)cnc21.Cc1ccc(S(=O)(=O)O)cc1 [Compound 1-17]
- Duration (time from disappearance of righting reflex to recovery) (ICR mice [1]): 7.24 min
- Incubation period (time from start of administration to disappearance of righting reflex) (ICR mice [1]): 0.75 min
- minimal effective dose (ICR mice [2]): 80 mg/kg
- Lethal dose (dose causing animal death) (ICR mice [2]): 360 mg/kg
- Treatment window (lethal dose/effective dose) (ICR mice [2]): 4.5

Structure (SMILES): COC(=O)CC[C@@H]1N=C(c2ccccn2)c2cc(C(F)(F)F)c(C)cc2-n2c(C)cnc21.Cc1ccc(S(=O)(=O)O)cc1 [Compound 1-8]
- Duration (time from disappearance of righting reflex to recovery) (ICR mice [1]): 8.60 min
- Incubation period (time from start of administration to disappearance of righting reflex) (ICR mice [1]): 0.55 min
- minimal effective dose (ICR mice [2]): 40 mg/kg
- Lethal dose (dose causing animal death) (ICR mice [2]): 260 mg/kg
- Treatment window (lethal dose/effective dose) (ICR mice [2]): 6.5

Structure (SMILES): COC(=O)CC[C@@H]1N=C(c2ccccn2)c2cc(F)c(C)cc2-n2c(C)cnc21.Cl [Compound 1-3]
- Duration (time from disappearance of righting reflex to recovery) (ICR mice [1]): 7.20 min
- Incubation period (time from start of administration to disappearance of righting reflex) (ICR mice [1]): 0.30 min
- minimal effective dose (ICR mice [2]): 60 mg/kg
- Lethal dose (dose causing animal death) (ICR mice [2]): 280 mg/kg
- Treatment window (lethal dose/effective dose) (ICR mice [2]): 4.67

Structure (SMILES): COC(=O)CC[C@@H]1N=C(c2ccncc2)c2cc(F)c(C)cc2-n2c(C)cnc21.Cc1ccc(S(=O)(=O)O)cc1 [Compound 1-5]
- Duration (time from disappearance of righting reflex to recovery) (ICR mice [1]): 8.21 min
- Incubation period (time from start of administration to disappearance of righting reflex) (ICR mice [1]): 0.40 min
- minimal effective dose (ICR mice [2]): 60 mg/kg
- Lethal dose (dose causing animal death) (ICR mice [2]): 320 mg/kg
- Treatment window (lethal dose/effective dose) (ICR mice [2]): 5.3

Structure (SMILES): COC(=O)CC[C@@H]1N=C(c2ccccn2)c2cc(OC)c(C)cc2-n2c(C)cnc21.Cc1ccc(S(=O)(=O)O)cc1 [Compound 1-9]
- Duration (time from disappearance of righting reflex to recovery) (ICR mice [1]): 8.77 min
- Incubation period (time from start of administration to disappearance of righting reflex) (ICR mice [1]): 0.63 min
- minimal effective dose (ICR mice [2]): 60 mg/kg
- Lethal dose (dose causing animal death) (ICR mice [2]): 260 mg/kg
- Treatment window (lethal dose/effective dose) (ICR mice [2]): 4.3

Structure (SMILES): CC(C)c1cccc(C(C)C)c1O [Propofol, reference compound]
- Percentage of extension of righting reflex disappearance (mice [3]; administration 1): 100%
- righting reflex disappearance time (mice [3]; administration 1): 4.0 min
- Percentage of extension of righting reflex disappearance (mice [3]; administration 2): 144%
- righting reflex disappearance time (mice [3]; administration 2): 5.8 min
- Percentage of extension of righting reflex disappearance (mice [3]; administration 3): 259%
- righting reflex disappearance time (mice [3]; administration 3): 10.4 min
- Percentage of extension of righting reflex disappearance (mice [3]; administration 4): 300%
- righting reflex disappearance time (mice [3]; administration 4): 12.1 min
- Percentage of extension of righting reflex disappearance (mice [3]; administration 5): 292%
- righting reflex disappearance time (mice [3]; administration 5): 11.7 min
- Percentage of extension of righting reflex disappearance (mice [3]; administration 6): 378%
- righting reflex disappearance time (mice [3]; administration 6): 15.2 min
- Percentage of extension of righting reflex disappearance (mice [3]; administration 7): 439%
- righting reflex disappearance time (mice [3]; administration 7): 17.6 min
- Percentage of extension of righting reflex disappearance (mice [3]; administration 8): 404%
- righting reflex disappearance time (mice [3]; administration 8): 16.2 min
- Percentage of extension of righting reflex disappearance (mice [3]; administration 9): 426%
- righting reflex disappearance time (mice [3]; administration 9): 17.1 min
- time after administration at which mice were awake (mice [4]): 5 to 10 min
- time after administration until autonomic activities basically recovered (mice [4]): 15 min

Structure (SMILES): COC(=O)CC[C@@H]1N=C(c2ccccn2)c2cc(C)c(C)cc2-n2c(C)cnc21.Cc1ccc(S(=O)(=O)O)cc1 [Compound 1-13]
- minimal effective dose (ICR mice [2]): 80 mg/kg
- Lethal dose (dose causing animal death) (ICR mice [2]): 320 mg/kg
- Treatment window (lethal dose/effective dose) (ICR mice [2]): 4

Structure (SMILES): COC(=O)CC[C@@H]1N=C(c2ccccn2)c2cc(F)c(F)cc2-n2c(C)cnc21.Cc1ccc(S(=O)(=O)O)cc1 [Compound 1-11]
- Duration (time from disappearance of righting reflex to recovery) (ICR mice [1]): 7.28 min
- Incubation period (time from start of administration to disappearance of righting reflex) (ICR mice [1]): 0.53 min
- minimal effective dose (ICR mice [2]): 80 mg/kg
- Lethal dose (dose causing animal death) (ICR mice [2]): 320 mg/kg
- Treatment window (lethal dose/effective dose) (ICR mice [2]): 4

Structure (SMILES): COC(=O)CC[C@@H]1N=C(c2ccccn2)c2cc([N+](=O)[O-])c(C)cc2-n2c(C)cnc21.Cc1ccc(S(=O)(=O)O)cc1 [Compound 1-7]
- Duration (time from disappearance of righting reflex to recovery) (ICR mice [1]): 8.39 min
- Incubation period (time from start of administration to disappearance of righting reflex) (ICR mice [1]): 0.60 min
- minimal effective dose (ICR mice [2]): 40 mg/kg
- Lethal dose (dose causing animal death) (ICR mice [2]): 240 mg/kg
- Treatment window (lethal dose/effective dose) (ICR mice [2]): 6

Structure (SMILES): CCOC(=O)CC[C@@H]1N=C(c2cccnc2)c2cc(C)c(F)cc2-n2c(C)cnc21.Cc1ccc(S(=O)(=O)O)cc1 [Compound 1-16]
- Duration (time from disappearance of righting reflex to recovery) (ICR mice [1]): 9.35 min
- Incubation period (time from start of administration to disappearance of righting reflex) (ICR mice [1]): 0.86 min
- minimal effective dose (ICR mice [2]): 40 mg/kg
- Lethal dose (dose causing animal death) (ICR mice [2]): 280 mg/kg
- Treatment window (lethal dose/effective dose) (ICR mice [2]): 7

Structure (SMILES): COC(=O)CC[C@@H]1N=C(c2cccnc2)c2cc(F)c(C)cc2-n2c(C)cnc21.Cc1ccc(S(=O)(=O)O)cc1 [Compound 1-4]
- Duration (time from disappearance of righting reflex to recovery) (ICR mice [1]): 9.32 min
- Incubation period (time from start of administration to disappearance of righting reflex) (ICR mice [1]): 0.37 min
- minimal effective dose (ICR mice [2]): 80 mg/kg
- Lethal dose (dose causing animal death) (ICR mice [2]): 280 mg/kg
- Treatment window (lethal dose/effective dose) (ICR mice [2]): 3.5

Structure (SMILES): COC(=O)CC[C@@H]1N=C(c2cccnc2)c2cc(F)c(C(F)(F)F)cc2-n2c(C)cnc21.Cc1ccc(S(=O)(=O)O)cc1 [Compound 1-14]
- Duration (time from disappearance of righting reflex to recovery) (ICR mice [1]): 6.30 min
- Incubation period (time from start of administration to disappearance of righting reflex) (ICR mice [1]): 0.58 min
- minimal effective dose (ICR mice [2]): 100 mg/kg
- Lethal dose (dose causing animal death) (ICR mice [2]): 360 mg/kg
- Treatment window (lethal dose/effective dose) (ICR mice [2]): 3.6

Structure (SMILES): COC(=O)CC[C@@H]1N=C(c2ccccn2)c2cc(F)c(C)cc2-n2c(C)cnc21.O=S(=O)(O)c1ccccc1 [Compound 1-1]
- Duration (time from disappearance of righting reflex to recovery) (ICR mice [1]): 7.00 min
- Incubation period (time from start of administration to disappearance of righting reflex) (ICR mice [1]): 0.35 min
- minimal effective dose (ICR mice [2]): 60 mg/kg
- Lethal dose (dose causing animal death) (ICR mice [2]): 320 mg/kg
- Treatment window (lethal dose/effective dose) (ICR mice [2]): 5.3

Structure (SMILES): COC(=O)CC[C@@H]1N=C(c2ccccn2)c2cc(OC)c(F)cc2-n2c(C)cnc21.Cc1ccc(S(=O)(=O)O)cc1 [Compound 1-15]
- Duration (time from disappearance of righting reflex to recovery) (ICR mice [1]): 9.02 min
- Incubation period (time from start of administration to disappearance of righting reflex) (ICR mice [1]): 0.54 min
- minimal effective dose (ICR mice [2]): 60 mg/kg
- Lethal dose (dose causing animal death) (ICR mice [2]): 320 mg/kg
- Treatment window (lethal dose/effective dose) (ICR mice [2]): 5.3

Structure (SMILES): COC(=O)CC[C@@H]1N=C(c2ccccn2)c2cc(Cl)c(Cl)cc2-n2c(C)cnc21.Cc1ccc(S(=O)(=O)O)cc1 [Compound 1-12]
- Duration (time from disappearance of righting reflex to recovery) (ICR mice [1]): 8.35 min
- Incubation period (time from start of administration to disappearance of righting reflex) (ICR mice [1]): 0.42 min
- minimal effective dose (ICR mice [2]): 60 mg/kg
- Lethal dose (dose causing animal death) (ICR mice [2]): 300 mg/kg
- Treatment window (lethal dose/effective dose) (ICR mice [2]): 5

Structure (SMILES): COC(=O)CC[C@@H]1N=C(c2ccccn2)c2cc(Br)c(C)cc2-n2c(C)cnc21.Cc1ccc(S(=O)(=O)O)cc1 [Compound 1-6]
- Duration (time from disappearance of righting reflex to recovery) (ICR mice [1]): 7.98 min
- Incubation period (time from start of administration to disappearance of righting reflex) (ICR mice [1]): 0.47 min
- minimal effective dose (ICR mice [2]): 100 mg/kg
- Lethal dose (dose causing animal death) (ICR mice [2]): 380 mg/kg
- Treatment window (lethal dose/effective dose) (ICR mice [2]): 3.8

Structure (SMILES): COC(=O)CC[C@@H]1N=C(c2ccccn2)c2cc(OC)c(OC)cc2-n2c(C)cnc21.Cc1ccc(S(=O)(=O)O)cc1 [Compound 1-10]
- Duration (time from disappearance of righting reflex to recovery) (ICR mice [1]): 7.86 min
- Incubation period (time from start of administration to disappearance of righting reflex) (ICR mice [1]): 0.48 min
- minimal effective dose (ICR mice [2]): 80 mg/kg
- Lethal dose (dose causing animal death) (ICR mice [2]): 300 mg/kg
- Treatment window (lethal dose/effective dose) (ICR mice [2]): 3.75
